Like-named read-outs stand apart in the source and are kept apart here.
What was measured:
[1] = system: lymphocytic leukemia P388; assay: In vivo lymphocytic leukemia P388 test; parameters: species or system CD2 F1 mice; conditions: Mus musculus, P388, ip, read-out: P388 in vivo T/C × 100
Method: Another test protocol is the in vivo lymphocytic leukemia P388 test. the animals used are either male or female CD2 F1 mice, six or seven animals per test group. The tumor transplant is by intraperitoneal injection of dilute ascitic fluid containing cells of lymphocytic leukemia P388. The test compounds are administered intraperitoneally once daily for five consecutive days at various doses following tumor inoculation. The animals are weighed and survivors are recorded on a regular basis for 30 days. A compound is designated "toxic" if, at a given dose, all animals die prior to four days after the first injection of drug. A ratio of survival time for treated (T)/control (C) animals is calculated. A criterion for efficacy is a ratio T/C times 100 greater than or equal to 125. See Cancer Chemotherapy Reports, Part 3, 3, 1 (1972) for a comprehensive discussion of the protocol.

HCT-8 cells = assay: In vitro proliferating human colon adenocarcinoma (HCA) cell screen, HCT-8 cells; assay type: cell-based; conditions: 60-65 hours at 37° C., value is ID50 multiplied by 10^7;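 also: ID50 is the molar concentration giving 50% growth inhibition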
Method: One test protocol is the in vitro proliferating human colon adenocarcinoma (HCA) cell screen. In this test, HCT-8 cells (HCA cell line received from Yale University) are trypsinized using trypsin-EDTA. A single cell suspension is achieved by passing the cells through a 26-gauge needle with a 20-cc syringe. A cell suspension is prepared using RPMI 1640+10% FCS+50 μg/ml gentamicin sulfate with a cell concentration of approximately 5,000 cells/ml. The cell suspension is dispensed in Linbro 24-well plates; 1 ml/well. The plates are incubated for approximately 48 hours at 37° C. in a 5% CO2 atmosphere. At this time test compounds are added in the appropriate concentration. Ten μl of the appropriate dilution is added to each well for a titration test. The plates are reincubated an additional 60-65 hours at 37° C. in a 5% CO2 atmosphere. The cells are lysed using a mix of cationic surfactant, glacial acetic acid and sodium chloride. Two ml of the lysed cell suspension from each well is added to 8 ml of diluent. The number of nuclei is determined using a Coulter counter (ZBI model), and a percent growth for each drug concentration is calculated.

[2] = system: Corynebacterium Sp. ATCC 21698; assay: In vitro antibacterial (ABMF) microdilution test, Corynebacterium Sp.; assay type: cell-based; conditions: ATCC21698, Mueller-Hinton broth, 37° C., 16-24 hours, read-out: ABMF minimal inhibitory conc, Coryn. Species
Excerpt: (§1) Still another test protocol is the in vitro antibacterial (ABMF) test which is a recognized standard microdilution susceptibility procedure in Mueller-Hinton broth against Gram-positive and Gram-negative bacterial test organisms. The procedure is a modification of a state-of-the-art procedure reported in Manual of Clinical Microbiology, Lennette, E. H., ed., by Barry, A. L. and C. Thornsberry at pages 463-474 and by Gavan, T. L. and A. L. Barry at pages 459-462, American Society for Microbiology, Washington, 1980.
(§2) In the test, a given bacterial culture is used to inoculate individual test wells of microdilution trays containing growth medium and test compound, the latter in a microdilution series: 1000, 333, 111, 37, 12, 4, 1.4, and 0.46 micrograms per milliliter. […] For convenience, values are reported for Escherichia coli, Corynebacterium Sp. ATCC 21698, Branhamella catarrhalis, Streptococcus pneumoniae, and Bacillus cereus.

[3] = system: L1210 murine leukemia cell lines; assay: In vitro antitumor screening (PDC test), L1210 murine leukemia cell growth; assay type: cell-based; conditions: Mus musculus, 72 h; L1210 cells, 37° C., three days; value is ID50 multiplied by 10^7
Method: Another test protocol is the in vitro antitumor screening (PDC test) of compounds of the present invention on L1210 murine leukemia cell lines. L1210 cells, a murine leukemia cell line, were grown in RPMI 1640 supplemented with 5% fetal bovine serum and gentamicin (50 μg/ml).
Drug dilutions were prepared in the apropriate solvent and 20 μl of each dilution were added to 24-well Linbro tissue culture plats, followed by the addition of M 2.0 ml of cell suspension containing 3×10^4 cells per ml. Solvent and medium controls were included in each test. After incubation at 37° C. for three days in 5% CO2, the contents of each well were removed and the cells counted in a ZBI Coulter counter. Percent growth was calculated relative to the controls and the levels of drug activity wre expressed as ID50 in moles per liter using probit paper.

Streptococcus pneumoniae = assay: In vitro antibacterial (ABMF) microdilution test, Streptococcus pneumoniae; assay type: cell-based; conditions: Mueller-Hinton broth, 37° C., 16-24 hours, read-out: ABMF minimal inhibitory conc, S. pneu.
Excerpt: as §1, §2

Branhamella catarrhalis = assay: In vitro antibacterial (ABMF) microdilution test, Branhamella catarrhalis; assay type: cell-based; conditions: Moraxella catarrhalis; Mueller-Hinton broth, 37° C., 16-24 hours; read-out: ABMF minimal inhibitory conc, B. cat.
Excerpt: as §1, §2

Escherichia coli = assay: In vitro antibacterial (ABMF) microdilution test, Escherichia coli; assay type: cell-based; conditions: Mueller-Hinton broth, 37° C., 16-24 hours, read-out: ABMF minimal inhibitory conc, E. coli
Excerpt: as §1, §2

Bacillus cereus = assay: In vitro antibacterial (ABMF) microdilution test, Bacillus cereus; assay type: cell-based; conditions: Mueller-Hinton broth, 37° C., 16-24 hours, read-out: ABMF minimal inhibitory conc, B. cer.
Excerpt: as §1, §2

[4] = intraperitoneal, once daily for five days, survival time treated/control
[5] = 50 mg/kg, intraperitoneal, once daily for five days, survival time treated/control

| Compound | IC50 (HCT-8 cells) [nM] | MIC [2] [µg/mL] | IC50 [3] [nM] | MIC (Streptococcus pneumoniae) [µg/mL] | MIC (Branhamella catarrhalis) [µg/mL] | MIC (Escherichia coli) [µg/mL] | MIC (Bacillus cereus) [µg/mL] | response vs control in vivo at 12.5 mg/kg [1, 4] [%] | response vs control in vivo at 25 mg/kg [1, 4] [%] | response vs control in vivo at 50 mg/kg [1, 5] [%] | response vs control in vivo at 100 mg/kg [1, 4] [%] | response vs control in vivo at 200 mg/kg [1, 4] [%] | response vs control in vivo at 50 mg/kg ([1]; 120 h) [%] |
| --- | --- | --- | --- | --- | --- | --- | --- | --- | --- | --- | --- | --- | --- |
| CCN(CC)CCNc1ccc([N+](=O)[O-])c2[nH]c3ccc(O)cc3c(=O)c12 [Example 2, 1-[[2-(Diethylamino)ethyl]amino]-7-hydroxy-4-nitro-9(10H)-acridinone, methanesulfonate (1:1), hydrate (1:1)] | 4.5 | < 0.46 | 6.7 | < 0.46 | < 0.46 | < 0.46 | < 0.46 | 250 |  |  |  |  |  |
| CCN(CC)CCNc1ccc([N+](=O)[O-])c2[nH]c3ccc(N(C)C)cc3c(=O)c12.CS(=O)(=O)O [Example 7, 1-[[2-(Diethylamino)ethyl]amino]-7-(dimethylamino)-4-nitro-9(10H)-acridinone, methanesulfonate (1:1)] | 560 | 111 | 1300 | 37 | > 1000 | > 1000 | > 1000 |  |  | 33 | 169 |  |  |
| CCOc1ccc2[nH]c3c([N+](=O)[O-])ccc(NC(C)CN(C)C)c3c(=O)c2c1 (stereo not shown) [Example 13, 1[[2-(Dimethylamino)-1-methylethyl]amino]-7-ethoxy-4-nitro-9(10H)-acridinone, monomethanesulfonate, hyrate] | 500 | < 0.46 | 1090 | 1.4 | 4.1 | 12.3 | 12.3 |  | 180 |  |  |  | 227 |
| O=c1c2ccccc2[nH]c2c([N+](=O)[O-])ccc(NCCNCCO)c12 [Example 16, 1-[[2-[(2-hydroxyethyl)amino]ethyl]amino]-4-nitro-9(10H)-acridinone, methanesulfonate (1:1), hydrate (1:1)] | 200 | < 0.46 | 330 | 1.4 | < 0.46 | 1.4 | 1.4 |  | 125 | 159 |  |  |  |
| CCOc1ccc2[nH]c3c([N+](=O)[O-])ccc(NCCNCCO)c3c(=O)c2c1.CS(=O)(=O)O [Example 17, 7-Ethoxy-1-[[2-[(2-hydroxyethyl)amino]ethyl]amino]-4-nitro-9(10H)-acridinone, methanesulfonate] | 120 | < 0.46 | 180 | 1.4 | 1.4 | < 0.46 | 4.1 |  | 124 | 138 |  |  |  |

Now from value to molecule, other results behind:

| IC50 (HCT-8 cells) [nM] | MIC [2] [µg/mL] | IC50 [3] [nM] | MIC (Streptococcus pneumoniae) [µg/mL] | MIC (Branhamella catarrhalis) [µg/mL] | MIC (Escherichia coli) [µg/mL] | MIC (Bacillus cereus) [µg/mL] | Compound | response vs control in vivo at 12.5 mg/kg [1, 4] [%] | response vs control in vivo at 25 mg/kg [1, 4] [%] | response vs control in vivo at 50 mg/kg [1, 5] [%] | response vs control in vivo at 100 mg/kg [1, 4] [%] | response vs control in vivo at 200 mg/kg [1, 4] [%] | response vs control in vivo at 50 mg/kg ([1]; 120 h) [%] |
| --- | --- | --- | --- | --- | --- | --- | --- | --- | --- | --- | --- | --- | --- |
| 1100 | < 0.46 | 2400 | < 0.46 | < 0.46 | 111 | 4.1 | CCN(CC)CCNc1ccc([N+](=O)[O-])c2[nH]c3ccc(OC)cc3c(=O)c12.CS(=O)(=O)O [Example 3, 1-[[2-(Diethylamino)ethyl]amino]-7-methoxy-4-nitro-9(10H)-acridinone, methanesulfonate (1:1)] | 126 | 151 | 178 | 237 | 296 |  |
| 400 | 4.1 | 680 | > 1000 | 37 | > 1000 | > 1000 | CCOc1ccc2[nH]c3c([N+](=O)[O-])ccc(NCCN(CC)CC)c3c(=O)c2c1.CS(=O)(=O)O [Example 4, 1-[[2-(Diethylamino)ethyl]amino]-7-ethoxy-4-nitro-9(10H)-acridinone, methanesulfonate (1:1)] | 129 | 149 | 211 | 273 |  |  |
| 340 | < 0.46 | 390 | < 0.46 | < 0.46 | 1.4 | 4.1 | CN(C)CCNc1ccc([N+](=O)[O-])c2[nH]c3ccccc3c(=O)c12 [Example 8, 1-[[2-(Dimethylamino)ethyl]amino]-4-nitro-9(10H)-acridinone, methanesulfonate (1:1), hemihydrate] |  | 142 | 185 |  |  |  |
| 890 | < 0.46 | 260 | < 0.46 | < 0.46 | > 1000 | > 1000 | COc1ccc2[nH]c3c([N+](=O)[O-])ccc(NCCN(C)C)c3c(=O)c2c1.CS(=O)(=O)O [Example 9, 1-[[2-(Dimethylamino)ethyl]amino]-7-methoxy-4-nitro-9(10H)-acridinone, methanesulfonate (1:1)] |  | 124 | 146 | 201 | 269 |  |
| 360 | > 1000 | 810 | > 1000 | > 1000 | > 1000 | > 1000 | CCOc1ccc2[nH]c3c([N+](=O)[O-])ccc(NCCN(C)C)c3c(=O)c2c1.CS(=O)(=O)O [Example 10, 1-[[2-(Dimethylamino)ethyl]amino]-7-ethoxy-4-nitro-9(10H)-acridinone, methanesulfonate (1:1)] |  | 128 | 162 | 193 | 260 |  |
| 450 | 4.1 | 880 | < 0.46 | 4.1 | 1.4 | 4.1 | COc1ccc2[nH]c3c([N+](=O)[O-])ccc(NC(C)CN(C)C)c3c(=O)c2c1 (stereo not shown) [Example 12, 1-[[2-Dimethylamino)-1-methylethyl]amino]-7-methoxy-4-nitro-9(10H)-acridinone, methanesulfonate, 1.25 hydrate] |  | 122 | 144 | 180 | 245 |  |

Reference: patent US4626540A, “Substituted 1-amino-4-nitro-acridinones and methods of treating bacterial infections and leukemia with them” (Warner-Lambert Company, priority 1984, dated 1986)
